Data: publication PMC10536132, “Arginine Gemini-Based Surfactants for Antimicrobial and Antibiofilm Applications: Molecular Interactions, Skin-Related Anti-Enzymatic Activity and Cytotoxicity” (Molecules, 2023)
Marks after values point to notes of the source that are not given here.

What was measured:
[1] = Cell viability, NRU assay; format: cell-based, human; conditions: human, HaCaT cells (immortal human keratinocytes); NRU, HaCaT, surfactant in solution at 35.6 µg/mL, 24 h; read-out: cellular viability
Description: (§1) The immortal human keratinocyte (HaCaT) and the squamous cell carcinoma (A431) were obtained from Celltec, University of Barcelona. The cells were grown in DMEM medium (4.5 g/L glucose) supplemented with 10% (v/v) FBS, 2 mM L-glutamine, 100 U/mL of penicillin and 100 μg/mL of streptomycin at 37 °C under 5% CO2. Cells were routinely cultured in 75 cm^2 culture flasks and were trypsinized using trypsin-EDTA when reached approximately 80% of confluence.
(§2) HaCaT cells (1 × 10^5 cells/mL) and A431 cells (5 × 10^4 cells/mL) were grown at the defined densities into the central 60 wells of a 96-well microplate. Cells were incubated for 24 h under 5% CO2 at 37 °C. The medium was then removed and the cells were incubated with the surfactants (100 μL), previously diluted 1:1 (v/v), reaching a concentration of […] in DMEM medium supplemented with 5% FBS using two different colorimetric methods for quantification, as follows.
(§3) The accumulation of the neutral red dye in the lysosomes of viable, undamaged cells constitutes the basis of the neutral red uptake (NRU) assay. After the cells were incubated for 24 h with the corresponding systems at 35.6 µg/mL, the medium was removed and the surfactants´ solutions were incubated for 3 h with the NRU dye solution (50 μg/mL) dissolved in the medium without FBS and phenol red (Lonza). Cells were then washed with sterile PBS, followed by the addition of 100 μL of a solution containing 50% ethanol absolute and 1% acetic acid in distilled water to extract the non-adhered dye. The microplates were then stirred for 5 min at 25 °C to promote the dissolution. Finally, the absorbance of the resulting solutions was measured at λ = 550 nm using a Bio-Rad 550 microplate reader (Hercules, CA, USA).

[2] = set-up: method as in doi:10.1021/la981295l; conditions: cited from earlier work
[3] = set-up: method as in doi:10.1021/la981295l; conditions: cited from earlier work; remark: listed apart in the source
[4] = target: porcine pancreatic elastase (Sus scrofa, UniProt P00772); experiment: Elastase inhibitory assay; format: biochemical; conditions: 40 µL of 1000 µg/mL stock; EGCG 250 μM
Sequence of porcine pancreatic elastase (P00772 27-266): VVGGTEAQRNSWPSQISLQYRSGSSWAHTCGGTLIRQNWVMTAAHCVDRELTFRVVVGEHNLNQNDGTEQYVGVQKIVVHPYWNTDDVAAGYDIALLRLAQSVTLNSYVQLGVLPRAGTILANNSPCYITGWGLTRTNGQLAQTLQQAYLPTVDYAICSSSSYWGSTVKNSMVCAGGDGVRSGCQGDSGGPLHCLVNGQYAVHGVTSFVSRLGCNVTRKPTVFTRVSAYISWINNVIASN
Description: The elastase inhibition was tested according to the method described by […] et al.. First, a stock solution of each surfactant at 1000 μg/mL was prepared in sterile ultrapure water. A stock solution of porcine pancreatic elastase at 3.33 mg/mL in sterile ultrapure water was also prepared. The substrate […] (Ala) 3-p-nitroanilide was dissolved in 0.2 mM Tris-HCl buffer solution (pH 8.0). The samples (40 μL) were then diluted and incubated together with the enzyme for 15 min prior to the substrate addition. Negative control was sterile ultrapure water, while EGCG (250 μM or 0.114 mg/mL) was used as the positive control. The absorbance at λ = 410 nm was measured immediately after the substrate addition and continuously during the next 2 h using an Elx800 Microplate Reader (Biotek®). […] The anti-elastase activity (in %), determined in triplicate, was calculated according to the following equation:(2) Elastase inhibitory activity %=A1-A2/A1×100 where A1 and A2 represent the absorbance in the absence and presence of the testing samples, respectively.

[5] = set-up: method as in doi:10.1021/la981295l; conditions: cited from earlier work; remark: listed apart in the source
bovine hyaluronidase = experiment: Hyaluronidase inhibitory activity; format: biochemical; conditions: negative inhibition values
Description: The hyaluronidase inhibitory activity was performed according to the method used by Altinyay et al. with some modifications. Briefly, a work solution containing bovine hyaluronidase (7900 units/mL) in 0.1 M acetate buffer (pH 3.6) was prepared. Fifty microliters of the work solution were mixed 1:1 with the surfactants’ solution in 5% DMSO. For the negative control, 50 μL of 5% DMSO was used, while EGCG was used as positive control. After 20 min of incubation at 37 °C, 50 μL of calcium chloride (12.5 mM) was added to the mixture and again incubated for 20 min at 37 °C. At that point, 250 μL sodium hyaluronate (1.2 mg/mL) was added and incubated for 40 min at 37 °C. After incubation, the mixture was treated with 50 μL of 0.4 M NaOH and 100 μL of 0.2 M sodium borate and then incubated for 3 min in a boiling water bath. After cooling to room temperature, 1.4 mL of p-dimethylaminobenzaldehyde solution was added to the reaction mixture, being further incubated at 37 °C for 20 min. The resulting colored solution was measured at λ = 585 nm (PerkinElmer-Lambda 35, Brazil). The hyaluronidase inhibitory activity of each sample was calculated according to the following formula:(3) Hyaluronidase inhibitory activity %=A1−A2/A1×100 where A1 and A2 represent the absorbance in the absence and presence of the testing sample, respectively.

[6] = Apparent pKa by direct titration with NaOH; format: physicochemical; conditions: aqueous solution, concentration above the minimum aggregation concentration; pH at semi-equivalence point
Description: In order to determine the ionization state of these gemini surfactants at the pH used to investigate their biological properties, the apparent acid pKa was determined for each of them. The pKap value has been determined by means of a direct titration with NaOH of an aqueous solution of each compound. The surfactant concentrations used were in all cases higher than the minimum aggregation concentration, thus avoiding possible deviations in the pK value due to the monomer–aggregate balance. The pKap values can be estimated from the pH at the semi-equivalence point that is reached when the molar ratio of protonated and non-protonated species is 1:1. In these conditions, we have that the pH = pKa.
The pKa value of each compound has been determined by means of a direct titration with NaOH of an aqueous solution of each compound. The pH was measured using the pH electrode Thermo Electron Corporation ORION 8103SC and the temperature was controlled by a thermostatic bath, Heto CBN 8-30. The pKa values can be estimated from the pH at the semi-equivalence point, which contains a 1:1 molar ratio of protonated and non-protonated species; at this point, pH = pKap.

[7] = system: squamous cell carcinoma (A431); experiment: Cell viability, NRU assay; format: cell-based; conditions: A431, surfactant in solution at 35.6 µg/mL, 24 h
Description: as §1, §2, §3

[8] = system: Pseudomonas aeruginosa PAO1 biofilm; experiment: Biofilm inhibition, crystal violet; format: cell-based; conditions: P. aeruginosa PAO1, 24 h contact, 2–128 μg/mL tested
Description: (§4) The ability of MRSA and P. aeruginosa to form biofilms on propylene surfaces in the presence of bis-Args was determined. The two bacterial cells were kept in contact with the gemini surfactants at different concentrations from 2 to 128 μg/mL for 24 h. Then, the percentage of biofilm inhibition was determined.
(§5) Antibiofilm activity was assessed against biofilm-producing strains of methicillin-resistant Staphylococcus aureus (MRSA) ATCC 43300 and Pseudomonas aeruginosa PAO1. Biofilm inhibition and eradication capacities of the gemini surfactants were evaluated against adherent bacterial biofilms grown in 96-well microtiter plates. Bacteria were grown overnight in tryptic soy agar at 37 °C for 24 h. The bacteria were suspended in lysogeny broth with glucose (1%) at 1.5 × 10^8 CFU/mL.
(§6) Biofilm inhibition procedure: 100 μL of the gemini surfactant at different concentration values was added to each well in a 96-well microplate, then, 100 μL of the diluted bacterial suspension was added to the wells. Two-fold serial dilutions of the gemini surfactants to be tested were used (2–128 μg/mL). Microtiter plates were incubated at 37 °C for 24 h. Spent growth media was then discarded and biofilm was fixed with 150 μL methanol for 10 min. After the plates were air dried, the biofilms were stained with 50 μL of 0.1 of % crystal violet for 25 min. The plates were rinsed with water and then 150 μL of 96% ethanol containing 10% acetic acid was added to all 96-well plates to dissolve the remaining crystal violet-stained biofilm. The absorbance value was recorded at 570 nm. Each assay was performed at least three times and the results were averaged.

[9] = system: methicillin-resistant Staphylococcus aureus (MRSA) ATCC 43300 biofilm; experiment: Biofilm inhibition, crystal violet; format: cell-based; conditions: 24 h contact, 2–128 μg/mL tested
Description: as §4, §5, §6

[10] = system: Pseudomonas aeruginosa PAO1 biofilm; experiment: Biofilm eradication, crystal violet; format: cell-based; conditions: P. aeruginosa PAO1, at 32 μg/mL
Description: (§7) The ability of these geminis to disperse and eradicate biofilms once formed on the propylene surfaces of the microtiter plates was evaluated using the same bacterial strains. […] The susceptibility of both biofilms against the tested surfactants was similar. At a low concentration of 32 μg/mL, C3(CA)2 and C3(LA)2 were able to eradicate around 60–70% of preformed biofilm; however, at this concentration, the […] hydrophobic compound, C3(OA)2, eradicated less than 30% of biofilm. At high concentrations, the eradication percentage is similar for all alkyl chains. […] In this case, at low concentrations, there is not a clear dependence between the antibiofilm properties and the spacer; however, at a high concentration, the best effectivity was obtained for the longer spacer chains.
as §5
(§8) Biofilm eradication procedure: For mature biofilm formation, 200 μL of the diluted bacterial suspension was added to each well in a 96-well microplate and incubated at 37 °C for 24 h. The wells were gently rinsed with phosphate-buffered saline (PBS) and 200 μL of the corresponding gemini surfactant solution was added to each well and incubated again at 37 °C for 24 h. Two-fold serial dilutions of the gemini surfactant were used (4–128 μg/mL). After the plates were air dried, the biofilms were stained with 50 μL of 0.1 of % crystal violet for 25 min. The plates were rinsed with water and then 150 μL of 96% ethanol containing 10% acetic acid was added to all 96-well plates to dissolve the remaining crystal violet-stained biofilm. The absorbance value was recorded at 570 nm. Each assay was conducted at least three times and the results were averaged.

[11] = system: methicillin-resistant Staphylococcus aureus (MRSA) ATCC 43300 biofilm; experiment: Biofilm eradication, crystal violet; format: cell-based; conditions: at 32 μg/mL
Description: as §7, §5, §8

[12] = system: Gram-positive and Gram-negative bacteria; experiment: Minimum inhibitory concentration (MIC), broth microdilution; format: cell-based; conditions: planktonic bacteria, 24 h at 37 °C, values only in Figure 2
From the text: The Gram-positive bacteria tested include some problematic microorganisms such us L. monocytogenes; these bacteria cause listeriosis, a serious disease that has grown considerably in industrialized countries due to the increased ratio of immunosuppressed persons and the extensive use of refrigerated food. We have also tested the effectivity of these surfactants against methicillin-resistant Staphylococcus aureus (MRSA), which is known as a major cause of hospital-acquired infections and, at this time, is a remarkable public health problem. […] For comparison, this figure also includes the MIC values of a LAM (lauroyl arginine methyl ester) surfactant that can be considered the single-stranded homologue of these geminis and the BAC (benzalkonium ammonium chloride), a quaternary ammonium surfactant widely used as antiseptic.
Antimicrobial tests were carried out against the following microorganisms: Bacillus subtilis ATCC 6633, Staphylococcus epidermidis ATCC 12228, Staphylococcus aureus ATCC 29213, Listeria monocytogenes ATCC 15313, Enterococcus faecalis ATCC 29212, Escherichia coli ATCC 25922, Acinetobacter baumannii ATCC 19606, Klebsiella aerogenes ATCC 13048, methicillin-resistant Staphylococcus aureus ATCC 43300 and Pseudomonas aeruginosa PAO1. […] The growth of the microorganisms was determined visually after incubation for 24 h at 37 °C. […]

anti-elastase activity (inhibition) [4] [%] | increase of hyaluronidase enzymatic activity (bovine hyaluronidase) [%] | pKap [6] | SMILES | viability at 24 h, 35.6 µg/mL [1] [%] | CMC (mM) Fluorescence [2] | CMC (mM) Conductivity [3] | CMC (mM) Surface Tension [5] | γcmc ([5]; surface tension at the cmc) | cytotoxicity, in words [7] | concentration that inhibits biofilm formation [8] [µg/mL] | concentration that inhibits biofilm formation [9] [µg/mL] | preformed biofilm eradicated [10] | preformed biofilm eradicated [11] | antimicrobial activity (MIC), in words [12]
10.5 | 47.2 | 10.5 | CCCCCCCCCCCC(=O)NC(CCCNC(=N)N)C(=O)NCCCCCCNC(=O)C(CCCNC(=N)N)NC(=O)CCCCCCCCCCC (stereo not drawn) [C6(LA)2] | 99.3 | 0.4 * mM | 0.4 * mM | 0.002 * mM | 30 * mN/m | did not cause any apparent cytotoxicity |  |  |  |  | 
 |  | 10.9 | CCCCCCCCCCCC(=O)NC(CCCNC(=N)N)C(=O)NCC(O)CNC(=O)C(CCCNC(=N)N)NC(=O)CCCCCCCCCCC (stereo not drawn) [C3(LA)2OH, Bis (N^α-lauroyl arginine) (2-hydroxy-1,3-propane) diamide] |  | 0.6 * mM | 0.6 * mM |  |  |  |  |  |  |  | 
 |  |  | CCCCCCCC(=O)NC(CCCNC(=N)N)C(=O)NCCCNC(=O)C(CCCNC(=N)N)NC(=O)CCCCCCC (stereo not drawn) [C3(OA)2] |  | 8 * mM |  |  |  |  | 128 | 128 | less than 30% | less than 30% | lowest antimicrobial efficiency (highest MIC values)
